Six compounds from ChEMBL document CHEMBL3632469, “Discovery of dihydroquinazolinone derivatives as potent, selective, and CNS-penetrant M(1) and M(4) muscarinic acetylcholine receptors agonists” (Bioorg Med Chem Lett, 2015) can be followed below.

The structures appear in SMILES notation.

Common to all, as to format: functional, cell-based
The target in assay [1] is T1, Muscarinic acetylcholine receptor M1 (Homo sapiens) (UniProt P11229).
T1 sequence (whole entry): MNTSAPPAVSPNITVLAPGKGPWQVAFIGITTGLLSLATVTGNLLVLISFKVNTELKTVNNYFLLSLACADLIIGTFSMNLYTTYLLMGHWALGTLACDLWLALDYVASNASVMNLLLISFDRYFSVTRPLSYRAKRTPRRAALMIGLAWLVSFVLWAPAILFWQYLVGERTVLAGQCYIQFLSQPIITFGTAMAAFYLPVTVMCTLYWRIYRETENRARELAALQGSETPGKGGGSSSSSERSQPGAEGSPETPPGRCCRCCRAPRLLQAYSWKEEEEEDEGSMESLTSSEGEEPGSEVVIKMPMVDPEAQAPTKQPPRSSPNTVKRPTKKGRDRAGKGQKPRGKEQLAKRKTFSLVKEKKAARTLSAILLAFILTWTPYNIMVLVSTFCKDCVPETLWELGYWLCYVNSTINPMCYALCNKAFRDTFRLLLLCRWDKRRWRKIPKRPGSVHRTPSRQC
In words: Agonist activity at human muscarinic M1 acetylcholine receptor expressed in CHO cells assessed as calcium mobilization at 0.3 uM by FLIPR assay.

Assay [2] has as its target T2, Muscarinic acetylcholine receptor M4 (Homo sapiens) (UniProt P08173).
T2 sequence (whole entry): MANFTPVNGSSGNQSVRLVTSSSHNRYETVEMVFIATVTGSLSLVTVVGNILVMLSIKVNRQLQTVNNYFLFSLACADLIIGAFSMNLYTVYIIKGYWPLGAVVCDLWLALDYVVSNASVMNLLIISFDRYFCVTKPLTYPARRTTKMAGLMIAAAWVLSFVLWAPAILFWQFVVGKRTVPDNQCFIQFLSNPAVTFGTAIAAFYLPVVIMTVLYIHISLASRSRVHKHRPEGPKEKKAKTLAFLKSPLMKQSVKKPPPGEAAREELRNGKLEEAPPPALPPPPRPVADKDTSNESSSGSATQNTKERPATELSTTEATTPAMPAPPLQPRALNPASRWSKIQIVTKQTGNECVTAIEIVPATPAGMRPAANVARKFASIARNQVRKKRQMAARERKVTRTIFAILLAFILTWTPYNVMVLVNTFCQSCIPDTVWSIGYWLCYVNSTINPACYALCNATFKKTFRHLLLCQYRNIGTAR
In words: Partial agonist activity at human muscarinic M4 acetylcholine receptor expressed in CHO cells co-expressing Galpha16 assessed as calcium mobilization at 0.3 uM by FLIPR assay. A general note: Calcium assays in cells follow changes in intracellular calcium, usually with a dye or a luminescent sensor.

For assay [3], the target named is T3, Muscarinic acetylcholine receptor M2 (Homo sapiens) (UniProt P08172).
T3 sequence (whole entry): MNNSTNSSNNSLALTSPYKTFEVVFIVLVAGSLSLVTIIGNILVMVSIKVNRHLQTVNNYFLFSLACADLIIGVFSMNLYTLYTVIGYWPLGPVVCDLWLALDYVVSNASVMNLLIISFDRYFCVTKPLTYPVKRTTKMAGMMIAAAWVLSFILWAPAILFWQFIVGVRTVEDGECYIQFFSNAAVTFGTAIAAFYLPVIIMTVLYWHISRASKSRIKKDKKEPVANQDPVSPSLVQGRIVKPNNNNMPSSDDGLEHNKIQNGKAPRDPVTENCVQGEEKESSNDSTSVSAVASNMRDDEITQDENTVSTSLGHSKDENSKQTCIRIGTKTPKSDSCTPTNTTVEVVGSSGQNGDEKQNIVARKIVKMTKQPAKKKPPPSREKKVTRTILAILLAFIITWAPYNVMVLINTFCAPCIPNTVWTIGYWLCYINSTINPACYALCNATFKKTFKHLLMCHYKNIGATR
In words: Agonist activity at human muscarinic M2 acetylcholine receptor expressed in CHO cells co-expressing Galpha16 assessed as calcium mobilization at 0.3 uM by FLIPR assay.

Assay [4] has as its target Muscarinic acetylcholine receptor M3 (Homo sapiens) (UniProt P20309). Kind of assay: Agonist activity at human muscarinic M3 acetylcholine receptor expressed in CHO cells assessed as calcium mobilization at 0.3 uM by FLIPR assay.
Assay [5] addresses T2, Muscarinic acetylcholine receptor M4 (Homo sapiens). In words: Partial agonist activity at human muscarinic M4 acetylcholine receptor expressed in CHO cells co-expressing Galpha16 assessed as calcium mobilization at 30 uM by FLIPR assay.
For assay [6], the target named is T4, Muscarinic acetylcholine receptor M5 (Homo sapiens) (UniProt P08912).
T4 sequence (whole entry): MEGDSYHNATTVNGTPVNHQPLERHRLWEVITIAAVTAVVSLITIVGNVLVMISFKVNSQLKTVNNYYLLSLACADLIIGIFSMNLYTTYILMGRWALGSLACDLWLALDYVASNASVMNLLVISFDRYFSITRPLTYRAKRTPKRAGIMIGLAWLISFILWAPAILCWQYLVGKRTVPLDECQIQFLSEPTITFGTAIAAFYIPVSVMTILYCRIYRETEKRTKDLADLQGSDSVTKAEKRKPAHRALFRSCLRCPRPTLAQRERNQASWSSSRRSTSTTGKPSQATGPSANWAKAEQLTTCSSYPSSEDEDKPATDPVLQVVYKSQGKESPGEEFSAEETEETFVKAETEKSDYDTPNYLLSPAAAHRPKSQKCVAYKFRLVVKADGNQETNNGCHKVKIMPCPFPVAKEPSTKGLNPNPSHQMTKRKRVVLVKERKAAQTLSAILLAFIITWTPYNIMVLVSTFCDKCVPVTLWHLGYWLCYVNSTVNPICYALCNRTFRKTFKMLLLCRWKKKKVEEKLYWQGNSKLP
In words: Agonist activity at human muscarinic M5 acetylcholine receptor expressed in CHO cells assessed as calcium mobilization at 10 uM by FLIPR assay.

Chain of Muscarinic acetylcholine receptor M3 (Homo sapiens) (P20309 whole entry, looked up): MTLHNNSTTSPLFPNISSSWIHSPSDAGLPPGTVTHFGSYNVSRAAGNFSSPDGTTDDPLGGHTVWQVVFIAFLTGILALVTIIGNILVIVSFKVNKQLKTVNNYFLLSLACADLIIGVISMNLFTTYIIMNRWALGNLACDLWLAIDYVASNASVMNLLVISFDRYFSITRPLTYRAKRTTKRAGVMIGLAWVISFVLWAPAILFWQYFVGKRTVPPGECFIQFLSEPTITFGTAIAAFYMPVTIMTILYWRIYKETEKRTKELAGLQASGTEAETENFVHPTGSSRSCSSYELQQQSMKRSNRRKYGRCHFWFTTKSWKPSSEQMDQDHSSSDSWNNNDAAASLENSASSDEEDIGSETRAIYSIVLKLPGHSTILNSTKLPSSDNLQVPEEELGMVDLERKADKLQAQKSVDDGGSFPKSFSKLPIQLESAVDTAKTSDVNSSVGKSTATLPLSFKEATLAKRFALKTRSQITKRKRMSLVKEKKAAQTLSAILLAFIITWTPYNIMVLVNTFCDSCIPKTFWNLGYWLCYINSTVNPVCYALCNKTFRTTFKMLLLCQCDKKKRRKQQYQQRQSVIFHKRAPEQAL

On to `CCOC(=O)N1CCC(CN2CCC(N3Cc4ccccc4NC3=O)CC2)CC1`, for which the Activity in assay [1] was determined as 82%; in assay [2], 66%; in assay [3], 39%; in assay [4] it was 7%.
As to `CCOC(=O)N1CCC(CN2CC(N3Cc4ccccc4NC3=O)C2)CC1`, the Activity in assay [1] worked out at 105%; in assay [2], 115%; in assay [3] it was 17%; in assay [4], 1%.
In the case of `CCOC(=O)N1[C@@H]2CC[C@H]1C[C@H](CN1CC(N3Cc4ccccc4NC3=O)C1)C2`, the Activity in assay [1] came to 87%; in assay [5], 65%; in assay [2] it was 64%; in assay [3], 12%; in assay [4] it was 1%.
As for `CCOC(=O)N1CCC(N2CCC(N3Cc4ccccc4NC3=O)CC2)CC1`, the Activity in assay [1] turned out to be 86%; in assay [2] it was 114%; in assay [3], 66%; in assay [4], 21%; in assay [6], 31%.
`CCOC(=O)N1CCC(CN2CC[C@H](N3Cc4ccccc4NC3=O)C2)CC1`: the Activity in assay [1] was 62%; in assay [2] it was 30%; in assay [3], 2%; in assay [4], 3%.
For the compound `CCOC(=O)N1CCC(CN2CC[C@@H](N3Cc4ccccc4NC3=O)C2)CC1`, the Activity in assay [1] turned out to be 95%; in assay [2], 91%; in assay [3], 53%; in assay [4], 2%; in assay [6], 3%.
